Laboratory results: patent US20240365781A1, “SYNERGISTICALLY EFFECTIVE HERBICIDE COMPOSITION COMPRISING PELARGONIC ACID AND FLAZASULFURON” (Belchim Crop Protection NV, priority 2017, published 2024)

What was measured:
Assay in all cases: post-emergence field trial under rows of vines, 150-200 L water/ha (Examples 6-9)
Assay type in all cases: in vivo
Digitaria sanguinalis = conditions: flazasulfuron 40 g/ha
From the text: (§1) The expected activity of a given combination of two or three herbicides can be calculated as follows according to a calculation method by Colby (cf. COLBY, S. R.: “Calculating synergistic and antagonistic responses of herbicide combinations”, • Weeds 15, pages 20-22, 1967): • If X=% damage by herbicide (A) at an application rate of m g/ha, • Y=% damage by herbicide (B) at an application rate of n g/ha, • E=the expected damage by herbicides (A) and (B) at application rates of m and n […] and, • then for a combination:
(§2) Individual compositions comprising pelargonic acid or flazasulfuron are compared with a herbicide composition according to the invention comprising pelargonic acid and flazasulfuron.
(§3) Herbicidal activity was determined by performing a post-emergence test. […] The corresponding mixture was in the form of a spray solution. Besides, spray solutions of individual compositions comprising pelargonic acid or flazasulfuron were used.
(§4) The spray solution was applied on plants of unwanted vegetation present on fields where perennial crops were grown.
(§5) After 5 to 88 days after application of the spray solution, the degree of damage to the unwanted vegetation is rated in % of plants of unwanted vegetation that were killed. Tests were performed on test fields (field trials).

Convolvulus arvensis = conditions: flazasulfuron 40 g/ha
From the text: as §1, §2, §3, §4, §5

Chenopodium album = conditions: flazasulfuron 40 g/ha
From the text: as §1, §2, §3, §4, §5

[1] = test system: Digitaria sanguinalis and Setaria pumila; conditions: flazasulfuron 40 g/ha
From the text: as §1, §2, §3, §4, §5

Veronica persicae = conditions: flazasulfuron 40 g/ha
From the text: as §1, §2, §3, §4, §5

Amaranthus retroflexus = conditions: flazasulfuron 40 g/ha
From the text: as §1, §2, §3, §4, §5

Sonchus oleracea = conditions: flazasulfuron 40 g/ha
From the text: as §1, §2, §3, §4, §5

Senecio vulgaris = conditions: flazasulfuron 40 g/ha
From the text: as §1, §2, §3, §4, §5

Geranium molle = conditions: 15 d, flazasulfuron 40 g/ha
From the text: as §1, §2, §3, §4, §5

Erigeron sumatrensis = conditions: flazasulfuron 40 g/ha
From the text: as §1, §2, §3, §4, §5

Oxalis latifolia = conditions: flazasulfuron 40 g/ha
From the text: as §1, §2, §3, §4, §5

[2] = 7 d, pelargonic acid 10880 g/ha
[3] = 14 d, pelargonic acid 5440 g/ha
[4] = 14 d, pelargonic acid 6800 g/ha
[5] = 14 d, pelargonic acid 8160 g/ha
[6] = 14 d, pelargonic acid 10880 g/ha
[7] = 27 d, pelargonic acid 5440 g/ha
[8] = 27 d, pelargonic acid 6800 g/ha
[9] = 27 d, pelargonic acid 8160 g/ha
[10] = 27 d, pelargonic acid 10880 g/ha
[11] = 56 d, pelargonic acid 5440 g/ha
[12] = 56 d, pelargonic acid 6800 g/ha
[13] = 56 d, pelargonic acid 8160 g/ha
[14] = 56 d, pelargonic acid 10880 g/ha
[15] = 28 d, pelargonic acid 6800 g/ha
[16] = 28 d, pelargonic acid 8160 g/ha
[17] = 28 d, pelargonic acid 10880 g/ha
[18] = 65 d, pelargonic acid 5440 g/ha
[19] = 65 d, pelargonic acid 8160 g/ha
[20] = 65 d, pelargonic acid 10880 g/ha
[21] = 31 d, pelargonic acid 5440 g/ha
[22] = 31 d, pelargonic acid 8160 g/ha
[23] = 31 d, pelargonic acid 10880 g/ha
[24] = 58 d, pelargonic acid 5440 g/ha
[25] = 58 d, pelargonic acid 6800 g/ha
[26] = 58 d, pelargonic acid 8160 g/ha
[27] = 58 d, pelargonic acid 10880 g/ha
[28] = 31 d, pelargonic acid 6800 g/ha

In the case of `CCCCCCCCC(=O)O` [Pelargonic acid, nonanoic acid], the herbicidal effect (Digitaria sanguinalis; 7 d, pelargonic acid 5440 g/ha) was 35%, the herbicidal effect (Digitaria sanguinalis; 7 d, pelargonic acid 6800 g/ha) was 63% and the herbicidal effect (Digitaria sanguinalis; 7 d, pelargonic acid 8160 g/ha) was 48%. The herbicidal effect (Digitaria sanguinalis; [2]) was 54%, the herbicidal effect (Digitaria sanguinalis; [3]) was 10% and the herbicidal effect (Digitaria sanguinalis; [4]) was 58%. It also gave a herbicidal effect (Digitaria sanguinalis; [5]) of 43%, a herbicidal effect (Digitaria sanguinalis; [6]) of 49% and a herbicidal effect (Digitaria sanguinalis; [7]) of 10%. It also gave a herbicidal effect (Digitaria sanguinalis; [8]) of 20%, a herbicidal effect (Digitaria sanguinalis; [9]) of 26% and a herbicidal effect (Digitaria sanguinalis; [10]) of 5%. It also gave a herbicidal effect (Digitaria sanguinalis; [11]) of 0%, a herbicidal effect (Digitaria sanguinalis; [12]) of 8% and a herbicidal effect (Digitaria sanguinalis; [13]) of 0%. The herbicidal effect (Digitaria sanguinalis; [14]) was 0%, the herbicidal effect (Convolvulus arvensis; 7 d, pelargonic acid 5440 g/ha) was 13% and the herbicidal effect (Convolvulus arvensis; 7 d, pelargonic acid 6800 g/ha) was 0%. It also gave a herbicidal effect (Convolvulus arvensis; 7 d, pelargonic acid 8160 g/ha) of 19%, a herbicidal effect (Convolvulus arvensis; [3]) of 13% and a herbicidal effect (Convolvulus arvensis; [4]) of 0%. For the same molecule, the herbicidal effect (Convolvulus arvensis; [5]) was 23%, the herbicidal effect (Convolvulus arvensis; [6]) was 43% and the herbicidal effect (Convolvulus arvensis; [15]) was 0%. It also gave a herbicidal effect (Convolvulus arvensis; [16]) of 0%, a herbicidal effect (Convolvulus arvensis; [17]) of 38% and a herbicidal effect (Convolvulus arvensis; [18]) of 0%. For the same molecule, the herbicidal effect (Convolvulus arvensis; 65 d, pelargonic acid 6800 g/ha) was 0%, the herbicidal effect (Convolvulus arvensis; [19]) was 0% and the herbicidal effect (Convolvulus arvensis; [20]) was 0%. It also gave a herbicidal effect (Chenopodium album; 7 d, pelargonic acid 5440 g/ha) of 60%, a herbicidal effect (Chenopodium album; [2]) of 91% and a herbicidal effect (Chenopodium album; [3]) of 60%. It also gave a herbicidal effect (Chenopodium album; [6]) of 91%, a herbicidal effect (Chenopodium album; [21]) of 45% and a herbicidal effect (Chenopodium album; [22]) of 74%. The herbicidal effect (Chenopodium album; [23]) was 78%, the herbicidal effect (Chenopodium album; [24]) was 23% and the herbicidal effect (Chenopodium album; [25]) was 35%. It also gave a herbicidal effect (Chenopodium album; [26]) of 65%, a herbicidal effect (Chenopodium album; [27]) of 65% and a herbicidal effect ([1]; 7 d, pelargonic acid 5440 g/ha) of 97%. It also gave a herbicidal effect ([1]; 7 d, pelargonic acid 6800 g/ha) of 19%, a herbicidal effect ([1]; 7 d, pelargonic acid 8160 g/ha) of 68% and a herbicidal effect [1, 2] of 70%. The herbicidal effect [1, 3] was 25%, the herbicidal effect [1, 5] was 19% and the herbicidal effect [1, 6] was 38%. It also gave a herbicidal effect ([1]; 28 d, pelargonic acid 5440 g/ha) of 0%, a herbicidal effect [1, 15] of 0% and a herbicidal effect [1, 16] of 0%. The herbicidal effect [1, 17] was 31%, the herbicidal effect [1, 18] was 0% and the herbicidal effect [1, 19] was 0%. For the same molecule, the herbicidal effect [1, 20] was 0%, the herbicidal effect (Veronica persicae; 7 d, pelargonic acid 5440 g/ha) was 43% and the herbicidal effect (Veronica persicae; 7 d, pelargonic acid 6800 g/ha) was 55%. It also gave a herbicidal effect (Veronica persicae; 7 d, pelargonic acid 8160 g/ha) of 50%, a herbicidal effect (Veronica persicae; [2]) of 45% and a herbicidal effect (Veronica persicae; [3]) of 10%. It also gave a herbicidal effect (Veronica persicae; [4]) of 45%, a herbicidal effect (Veronica persicae; [5]) of 30% and a herbicidal effect (Veronica persicae; [6]) of 30%. It also gave a herbicidal effect (Veronica persicae; [7]) of 0%, a herbicidal effect (Veronica persicae; [8]) of 20% and a herbicidal effect (Veronica persicae; [9]) of 0%. The herbicidal effect (Veronica persicae; [10]) was 0%, the herbicidal effect (Veronica persicae; [11]) was 0% and the herbicidal effect (Veronica persicae; [14]) was 0%. The herbicidal effect (Amaranthus retroflexus; 7 d, pelargonic acid 5440 g/ha) was 53%, the herbicidal effect (Amaranthus retroflexus; [2]) was 86% and the herbicidal effect (Amaranthus retroflexus; [3]) was 53%. It also gave a herbicidal effect (Amaranthus retroflexus; [6]) of 86%, a herbicidal effect (Amaranthus retroflexus; [21]) of 48% and a herbicidal effect (Amaranthus retroflexus; [28]) of 50%. For the same molecule, the herbicidal effect (Amaranthus retroflexus; [22]) was 70%, the herbicidal effect (Amaranthus retroflexus; [23]) was 75% and the herbicidal effect (Amaranthus retroflexus; [24]) was 18%. It also gave a herbicidal effect (Amaranthus retroflexus; [25]) of 30%, a herbicidal effect (Amaranthus retroflexus; [26]) of 48% and a herbicidal effect (Amaranthus retroflexus; [27]) of 63%. It also gave a herbicidal effect (Sonchus oleracea; [3]) of 25%, a herbicidal effect (Sonchus oleracea; [4]) of 45% and a herbicidal effect (Sonchus oleracea; [5]) of 25%. It also gave a herbicidal effect (Sonchus oleracea; [6]) of 28%, a herbicidal effect (Sonchus oleracea; [7]) of 0% and a herbicidal effect (Sonchus oleracea; [8]) of 13%. For the same molecule, the herbicidal effect (Sonchus oleracea; [9]) was 0%, the herbicidal effect (Sonchus oleracea; [10]) was 0% and the herbicidal effect (Sonchus oleracea; [11]) was 0%. The herbicidal effect (Sonchus oleracea; [12]) was 0%, the herbicidal effect (Sonchus oleracea; [13]) was 0% and the herbicidal effect (Sonchus oleracea; [14]) was 0%. For the same molecule, the herbicidal effect (Senecio vulgaris; 7 d, pelargonic acid 5440 g/ha) was 83%, the herbicidal effect (Senecio vulgaris; 7 d, pelargonic acid 6800 g/ha) was 89% and the herbicidal effect (Senecio vulgaris; [3]) was 80%. For the same molecule, the herbicidal effect (Senecio vulgaris; [4]) was 89%, the herbicidal effect (Senecio vulgaris; [5]) was 98% and the herbicidal effect (Senecio vulgaris; [21]) was 60%. It also gave a herbicidal effect (Senecio vulgaris; [28]) of 60%, a herbicidal effect (Senecio vulgaris; [22]) of 91% and a herbicidal effect (Senecio vulgaris; [23]) of 90%. It also gave a herbicidal effect (Senecio vulgaris; [24]) of 0%, a herbicidal effect (Senecio vulgaris; [26]) of 10% and a herbicidal effect (Senecio vulgaris; [27]) of 15%. For the same molecule, the herbicidal effect (Geranium molle; pelargonic acid 5440 g/ha) was 0%, the herbicidal effect (Geranium molle; pelargonic acid 6800 g/ha) was 3% and the herbicidal effect (Geranium molle; pelargonic acid 8160 g/ha) was 0%. For the same molecule, the herbicidal effect (Geranium molle; pelargonic acid 10880 g/ha) was 0%, the herbicidal effect (Erigeron sumatrensis; 5 d, pelargonic acid 5440 g/ha) was 55% and the herbicidal effect (Erigeron sumatrensis; 5 d, pelargonic acid 8160 g/ha) was 83%. It also gave a herbicidal effect (Erigeron sumatrensis; 15 d, pelargonic acid 5440 g/ha) of 35%, a herbicidal effect (Erigeron sumatrensis; 15 d, pelargonic acid 6800 g/ha) of 50% and a herbicidal effect (Erigeron sumatrensis; 15 d, pelargonic acid 8160 g/ha) of 61%. The herbicidal effect (Oxalis latifolia; 7 d, pelargonic acid 6800 g/ha) was 54%, the herbicidal effect (Oxalis latifolia; 7 d, pelargonic acid 8160 g/ha) was 58% and the herbicidal effect (Oxalis latifolia; [2]) was 73%. For the same molecule, the herbicidal effect (Oxalis latifolia; [3]) was 76%, the herbicidal effect (Oxalis latifolia; [4]) was 85% and the herbicidal effect (Oxalis latifolia; [5]) was 89%. It also gave a herbicidal effect (Oxalis latifolia; [6]) of 96% and a herbicidal effect (Oxalis latifolia; [15]) of 68%.
